Reference: patent US20080045559A1, “TOCOPHEROL-MODIFIED THERAPEUTIC DRUG COMPOUNDS” (SONUS PHARMACEUTICALS, INC., priority 2003, published 2008)

How the values were obtained:
Test in all cases: In vitro cytotoxicity GI50, Example 48
Format in all cases: cell-based
[1] = tested on: H460 (NSCLC); details: Homo sapiens, NCI-H460; H460; Alamar Blue or Sulfarhodamine B; read-out: GI50
[2] = tested on: HCT-15 (COLON); details: Homo sapiens, Alamar Blue or Sulfarhodamine B
[3] = tested on: HCT-116 (COLON); details: Homo sapiens, HCT-116, HCT-116; Alamar Blue or Sulfarhodamine B
Experimental: The study was performed using either Alamar Blue or Sulfarhodamine B assays.

[4] = tested on: SKOV-3 (OVARIAN); details: Homo sapiens, SK-OV-3, Alamar Blue or Sulfarhodamine B

CC[C@@]1(O)C(=O)OCc2c1cc1n(c2=O)Cc2cc3cc(OC(=O)CCC(=O)Oc4c(C)c(C)c5c(c4C)CC[C@@](C)(CCC[C@H](C)CCC[C@H](C)CCCC(C)C)O5)ccc3nc2-1 [VESA-10-HO-CPT, Butanedioic acid, (2R)-3,4-dihydro-2,5,7,8-tetramethyl-2-[(4R,8R)-4,8,12-trimethyltridecyl]-2H-1-benzopyran-6-yl (4S)-4-ethyl-3,4,12,14-tetrahydro-4-hydroxy-3,14-dioxo-1H-pyrano[3′,4′:6,7]indolizino[1,2-b]quinolin-9-yl ester]
GI50 [1]: 155 nM
GI50 [2]: 1290 nM
GI50 [3]: 186 nM
GI50 [4]: 97.7 nM
